Source: patent US20100240700A1, “PROPHYLACTIC PRETREATMENT WITH ANTIOXIDANTS” (MITOS PHARMACEUTICALS, INC., priority 2003, published 2010)

System: cerebral ischemia (infarcts) in patients with aneurysmal subarachnoid hemorrhage
Test: clinical study of Tempol on prevention of cerebral ischemia during treatment of aneurysms (MRI-DWI infarct count and size)
Assay type: in vivo
Conditions: human patients, 1-300 mg/kg orally before and after surgical or endovascular treatment; MRI-DWI 1-3 days and 6 weeks post-treatment
Protocol: This example describes a clinical study to determine the effect of Tempol on the prevention of cerebral ischemia during treatment of aneurysms in human patients that have bled. Patients, having suffered aneurysmal subarachnoid hemorrhaging, undergo magnetic resonance imaging (MRI-DWI) to count the number of infarcts and measure their size. Either 1-300 mg/kg of Tempol or a placebo are orally administered to the human patients. Patients undergo treatment for subarachnoid hemorrhaging (e.g., surgical or endovascular). After surgery, 1-300 mg/kg of Tempol or a placebo are orally administered to the patients. 1-3 days post-treatment, follow up MRI-DWI is used to count and measure the size of infarcts. The number and size of the infarcts is also measured 6 weeks post-treatment using MRI-DWI.

CC1(C)CC(O)CC(C)(C)N1[O] [Tempol, 4-hydroxy-2,2,6,6-tetramethylpiperidine-1-oxyl]
number of infarcts (MRI-DWI) versus placebo: fewer
size of infarcts (MRI-DWI) versus placebo: smaller sized
